The values below come from ChEMBL document CHEMBL1144687, “Pim2 inhibitors from the Papua New Guinean plant Cupaniopsis macropetala” (J Nat Prod, 2008).

This test addresses Serine/threonine-protein kinase pim-2 (Homo sapiens, UniProt Q9P1W9). The experiment in a line: Inhibition of Pim2 kinase.

Molecules are shown by their SMILES.

The IC50 is the concentration needed to halve the response being measured. The low end stands for greater potency in that assay, the high end for weaker potency in that assay.

Chain of Serine/threonine-protein kinase pim-2 (Q9P1W9 whole entry): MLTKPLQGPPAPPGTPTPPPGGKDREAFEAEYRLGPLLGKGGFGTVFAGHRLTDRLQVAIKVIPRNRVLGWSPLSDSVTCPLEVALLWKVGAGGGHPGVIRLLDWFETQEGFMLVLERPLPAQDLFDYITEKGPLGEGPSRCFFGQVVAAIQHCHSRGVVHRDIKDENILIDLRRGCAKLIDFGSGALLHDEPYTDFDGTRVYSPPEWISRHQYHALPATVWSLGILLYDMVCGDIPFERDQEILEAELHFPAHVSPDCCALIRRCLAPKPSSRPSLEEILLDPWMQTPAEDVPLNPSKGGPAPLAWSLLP

In turn, `NCCc1ccc(OC(=O)c2cc(O)c(O)c(O)c2)cc1` [GALLOYL TYRAMINE] had a 50% inhibitory concentration (IC50) of 161 µM.

In turn, `C[C@@H]1O[C@@H](Oc2c(-c3ccc(O)c(O)c3)oc3cc(O)cc(O)c3c2=O)[C@H](O)[C@H](O)[C@H]1O` [QUERCITRIN] gave an IC50 of 25 µM.
